Test results taken from publication PMC11211886 (Frontiers in Pharmacology, 2024).
Where two headings read alike, the source gives them in different places.

Experiments:
[1] = Single-dose PK in SD rats (IV/PO); parameters: species or system SD rat; conditions: in vivo
Excerpt: For the single-dose PK study, twenty-four rats were divided into four groups, with six rats (male: female = 1:1) in each group.

[2] = target: T1, CYP2C19 (Homo sapiens, UniProt P33261); experiment: Time-dependent CYP inhibition in HLM, CYP2C19; format: in vitro ADME; conditions: 10 μM, 30 min pre-incubation with NADPH
T1 construct: tissue Life Technologies (Durham, NC, USA); host or cells: human liver microsomes
T1 sequence (P33261 whole entry): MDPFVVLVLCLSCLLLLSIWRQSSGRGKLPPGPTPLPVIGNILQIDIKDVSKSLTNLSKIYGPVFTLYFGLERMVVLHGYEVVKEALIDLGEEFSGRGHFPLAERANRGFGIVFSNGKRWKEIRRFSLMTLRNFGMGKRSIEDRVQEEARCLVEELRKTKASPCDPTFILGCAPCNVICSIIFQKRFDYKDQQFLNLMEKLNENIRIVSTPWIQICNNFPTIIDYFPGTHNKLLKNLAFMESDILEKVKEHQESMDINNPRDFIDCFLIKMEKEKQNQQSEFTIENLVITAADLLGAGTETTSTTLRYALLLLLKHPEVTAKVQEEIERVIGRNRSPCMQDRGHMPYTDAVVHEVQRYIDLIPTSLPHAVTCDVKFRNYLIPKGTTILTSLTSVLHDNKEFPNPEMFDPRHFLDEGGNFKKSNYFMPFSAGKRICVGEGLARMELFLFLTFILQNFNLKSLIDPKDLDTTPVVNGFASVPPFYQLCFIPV
Procedure: The procedure of time-dependent CYP inhibition was similar to that used for CYP reversible inhibition, as mentioned above, except that a pre-incubation step was added. […] Another appropriate volume of the NADPH-regenerating system and probe substrate were added to initiate the CYP isoform enzyme activity test step. For this step, the incubation period was 10 min, except for CYP2B6, CYP2C8, and CYP3A4/5 (probe substrate: midazolam), which was 3 min to make sure the reaction was under initial linear rates. After incubation for the designated time periods at 37°C, the ice-cold acetonitrile containing IS was added to quench the reaction. […] (Ainactivator/[…] represents the enzyme activity remaining due to the inhibition by the diluted inactivator in the enzyme activity test step, and (Ainactivator/[…] represents the remaining enzyme activity due to pre-incubation loss plus inhibition by the diluted inactivator in the enzyme activity test step.

[3] = target: T2, OATP1B3 (Homo sapiens, UniProt Q9NPD5); experiment: OATP1B3 inhibition, β-estradiol 17-(β-D-glucuronide) uptake in transfected HEK293 cells
T2 sequence (Q9NPD5 1-702): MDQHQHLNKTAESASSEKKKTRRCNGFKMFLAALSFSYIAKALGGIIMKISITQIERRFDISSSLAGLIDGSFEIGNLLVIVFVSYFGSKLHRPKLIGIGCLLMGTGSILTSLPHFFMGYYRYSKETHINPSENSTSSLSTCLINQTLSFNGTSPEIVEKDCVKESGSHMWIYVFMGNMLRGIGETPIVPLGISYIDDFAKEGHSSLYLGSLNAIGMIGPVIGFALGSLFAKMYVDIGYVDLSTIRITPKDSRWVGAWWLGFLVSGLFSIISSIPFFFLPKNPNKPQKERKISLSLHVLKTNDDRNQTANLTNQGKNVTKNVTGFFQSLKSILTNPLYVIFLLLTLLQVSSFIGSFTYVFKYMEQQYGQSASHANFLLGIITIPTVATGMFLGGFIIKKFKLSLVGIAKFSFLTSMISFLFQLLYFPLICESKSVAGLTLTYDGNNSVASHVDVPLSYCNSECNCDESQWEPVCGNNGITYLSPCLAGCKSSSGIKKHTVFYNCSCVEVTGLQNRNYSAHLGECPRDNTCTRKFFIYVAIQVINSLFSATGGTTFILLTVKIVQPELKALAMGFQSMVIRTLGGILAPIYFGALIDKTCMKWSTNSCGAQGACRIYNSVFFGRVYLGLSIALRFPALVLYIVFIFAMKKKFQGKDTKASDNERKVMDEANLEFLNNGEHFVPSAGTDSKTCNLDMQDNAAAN
Procedure: The pre-incubation solutions were removed, and incubation solutions containing the inhibitors and probe substrates (or transport buffer containing an equal volume of vehicle control and probe substrates) were added and incubated at 37°C for 2 min (5 min for OATP1B3). The probe substrate for OAT1 was 4-aminohippuric acid (10 μM), for OAT3 was estrone 3-sulfate (10 μM), for OCT2 was metformin (100 μM), for OATP1B1 was β-estradiol 17-(β-D-glucuronide) (5 μM), for OATP1B3 was β-estradiol 17-(β-D-glucuronide) (10 μM), and for MATE1 and MATE2-K was tetraethylammonium (10 μM). After incubation, cells were washed three times with ice-cold transport buffer (25 mM HEPES, pH 7.4, pH 8.0 for overexpressing MATE1 and MATE2-K HEK293 cells) and lysed in distilled water. The concentrations of probe substrates were determined by LC-MS/MS, and a BCA Kit (Solarbio ®Life Sciences, Beijing, China) was used to determine the protein content in the cell lysate.
where C is the concentration of the drug in the cell lysate (nM), P is the protein concentration of the cell lysate (mg/mL), and T is the incubation time (minute). Uptake ratetest compound is the uptake rate of the substrate in the presence of the test compound. Uptake ratevehicle control is the uptake rate of the substrate in the presence of the vehicle control. Uptake ratepassive is the uptake rate of the substrate in the presence of the positive inhibitor at the top test concentration.

[4] = both sexes, SD, rat, iv, 5 mg/kg
[5] = both sexes, SD, rat, po, 1 mg/kg
[6] = both sexes, SD, rat, po, 5 mg/kg
[7] = both sexes, SD, rat, po, 25 mg/kg

## C[C@H](Nc1ncnc(N)c1C#N)c1cc2ncc(Cl)n2nc1-c1ccccc1 [Amdizalisib]
[1]; [4]
  AUC(0-inf): 13900 ng·h/mL
  AUC(0-t): 13900 ng·h/mL
  MRT: 4.6 ± 2.85 h
  Vd: 1.68 ± 0.153 L/kg
  clearance: 9.12 ± 6.31 mL/min/kg
[1]; [5]
  AUC(0-inf): 1320 ng·h/mL
  AUC(0-t): 1140 ng·h/mL
  Cmax: 115 ± 79.1 ng/mL
  MRT: 7.9 ± 5.28 h
[1]; [6]
  AUC(0-inf): 6130 ng·h/mL
  AUC(0-t): 6040 ng·h/mL
  Cmax: 622 ± 257 ng/mL
  MRT: 7.84 ± 5.51 h
  Tmax: 1.5 ± 0.548 h
  half-life: 5.11 ± 4 h
[1]; [7]
  AUC(0-inf): 52600 ng·h/mL
  AUC(0-t): 52400 ng·h/mL
  Cmax: 3350 ng/mL
  MRT: 11 ± 6.61 h
  half-life: 5.62 ± 2.86 h
[1]; both sexes, SD rat, fasted, IV 5 mg/kg, read-out: t1/2 (converted)
  half-life: 3.61 ± 2.01 h
[1]; both sexes, SD rat, fasted, PO 1 mg/kg, read-out: Tmax
  Tmax: 2.67 ± 1.75 h
[1]; both sexes, SD rat, fasted, PO 1 mg/kg, read-out: t1/2 (converted)
  half-life: 4.94 ± 3.35 h
[1]; both sexes, SD rat, fasted, PO 25 mg/kg, read-out: Tmax
  Tmax: 4.17 ± 2.23 h
[1]; both, Sprague-Dawley, rat, iv
  CL as % of the hepatic blood flow: 16.6%
[2]
  activity loss of CYP2C19: less than 10%
[3]
  IC50: 5.03 µM
[3]; human, 5 min, 0.3 μM, pH 7.4
  Percentage transported: 94.5%
  Uptake rate: 62.4±5.58 pmol/mg protein/min
[3]; human, 5 min, 1 μM, pH 7.4
  Percentage transported: 89.2%
  Uptake rate: 59.1±6.36 pmol/mg protein/min
[3]; human, 5 min, 3 μM, pH 7.4
  Percentage transported: 68.1%
  Uptake rate: 46.2±10.1 pmol/mg protein/min
[3]; human, 5 min, 10 μM, pH 7.4
  Percentage transported: 29.3%
  Uptake rate: 22.4±1.00 pmol/mg protein/min
[3]; human, 5 min, 30 μM, pH 7.4
  Percentage transported: 3.82%
  Uptake rate: 6.76±0.372 pmol/mg protein/min
[3]; human, 5 min, 100 μM, pH 7.4
  Percentage transported: -4.02%
  Uptake rate: 1.99±0.315 pmol/mg protein/min
[3]; human, 5 min, pH 7.4
  calculated R value (OATP1B3): 5.1
[3]; human, pH 7.4
  inhibition at 5 min, 0.3 µM: 5.47%
  inhibition at 5 min, 1 µM: 10.8%
  inhibition at 5 min, 3 µM: 31.9%
  inhibition at 5 min, 10 µM: 70.7%
  inhibition at 5 min, 30 µM: 96.2%
  inhibition at 5 min, 100 µM: 104%
